“Also recorded” adds a separate entry of the source.
Assays:
BM KSL cells [1] = assay: Culture of 300 cGy-irradiated BM KSL cells with BM ECs or TSF cytokines; CFC and CFU-S12 recovery; format: cell-based, mouse
Procedure: BM cells were collected into PBS (Cellgro, Manassas, Va.) with 10% fetal bovine serum (Hyclone, Logan, Utah) and 1% penicillin/streptomycin (GIBCO, Grand Island, N.Y.). Viable BM cells were quantified using Trypan Blue Stain (Lonza, Basel, Switzerland) to exclude apoptotic and dead cells. Cells were then incubated with anti-c-kit, anti-Sca-1, anti-lineage cocktail, anti-CD41, anti-CD48, and anti-CD150 antibodies (Biolegend and eBiosciences, San Diego, Calif.; BD, San Jose, Calif.) to measure ckit^+sca-1^+lin^− (KSL) progenitor cells or CD150′CD41^−CD48^−KSL (SLAM/KSL) as previously described (Kiel et al, Cell 121:1109-1121 (2005)). Colony forming cells (CFCs) and CFU-S12 assays were also performed to measure functional hematopoietic stem/progenitor cell content. For CFCs, either whole BM or cultured lineage−cells, or KSL cells were plated onto methylcellulose (StemCell Technologies, Vancouver, BC, Canada), and colonies were scored on day 14. 1×10^5 BM or 2×10^5 cells were collected from donor mice and injected via tail vein into recipient C57B16 mice that had been given 950 cGy TBI. At day +12 post-injection, spleens from recipient mice were harvested and stained with Bouin's fixative solution (Ricca Chemical Company, Arlington, Tex.), and colonies were counted as previously described (Till and MeRadiat. Res. 14:213-222 (1961)). Complete blood counts were performed on a HemaVet 950 (Drew Scientific, Dallas, Tex.). […]

BM 34-KSL cells = assay: Competitive transplantation of the progeny of cultured BM 34-KSL cells; format: cell-based, mouse; settings: progeny of 300 cGy-irradiated, EGF-treated BM 34-KSL cells; 8 weeks post-transplant
BM KSL cells [2] = assay: Annexin V apoptosis assay of irradiated BM KSL cells in culture; format: cell-based, mouse; settings: 72 hours, vs cytokines alone
Procedure: (§1) Cell apoptosis and necrosis were analyzed by flow cytometry according to manufacturer's protocols with Annexin V-FITC and 7-AAD staining (BD, San Jose, Calif.). […] Cells were fixed and permeabilized with Fix Buffer I and Perm Buffer III (BD), and then stained with mouse anti-phospho-AKT-S473 PE (BD) or isotype control. Cell cycle analysis was performed by flow cytometric analysis modified from previous reports (Jordan et al, Exp. Hematol. 24:1347-1355 (1996), Chute et al, Hum. Gene Ther. 11:2515-2528 (2000), Sungartz et al, Blood 119:1308-1309 (2012)). Briefly, cells were fixed and permeabilized with 0.25% Saponin (Calbiochem, La Jolla, Calif.), 2.5% paraformaldehyde, 2% FBS in 1×PBS, and then labeled with Ki67-FITC and 7-AAD (BD). BM lin^− cells from VavCre;EGFR^+/+ or VavCre;EGER^fl/fl were cultured with TSF or TSF+10 μM erlotinib, or TSF following 300 cGy for 72 hours, and then collected for total cell counts and CFCs analysis.

CD45+MECA- BM cells = assay: Annexin+ BM hematopoietic cells in mice after 700 cGy TBI; format: in vivo, mouse; settings: systemic EGF x 7 days, day +7, vs saline
Procedure: FIGS. 7A-7G. […] (FIG. 7B) Mean percentage of Annexin^+ Tie2Cre;Bak1^−/−;Bax^Fl/−. […] Non-irradiated BM KSL cells reside predominantly in the G0 (white). G1 light gray, G2/S/M=dark gray. *P=0.002 vs TSF for G0 and ̂P=0.002 vs TSF for G2/S/M, respectively (means±SEM, n=3-5/group). […] The majority of non-irradiated cells were in G0 (white). […] The Mann-Whitney test was utilized for all comparisons unless otherwise noted.
as §1

BM KSL cells [3] = assay: Cell cycle analysis (Ki67/7-AAD) of irradiated BM KSL cells; format: cell-based, mouse
Procedure: as §1

BM KSL cells [4] = assay: BrdU incorporation in BM KSL cells in vivo after 700 cGy TBI; parameters: species or system mouse; settings: day +7 following 700 cGy TBI, EGF daily x 7 days, vs saline
Procedure: Cell proliferation was measured in C57B16 mice exposed to 700 cGy TBI and administered 5-bromo-2-deoxyridine (BrdU, BD) in drinking water from the day of irradiation until day +7. BM cells were labeled with anti-cKit PE, anti-scal PE-Cy7, anti-lineage APC, and anti-BrdU FITC. Incorporation of BrdU was analyzed by flow cytometry according to the manufacturer's staining protocol (BD).

MAPK = assay: Phosphorylation of MAPK in irradiated BM KSL cells; format: cell-based, mouse; settings: EGF treatment of irradiated BM KSL cells in culture; data not shown
Excerpt: EGFR signaling can activate multiple signaling cascades, including the MAPK and PI3k/Akt signaling pathways (Sordella et al, Science 305:1163-1167 (2004), Yang et al, Nature 480:118-122 (2011), Hynes and Lane, Nat. Rev. Cancer 5:341-354 (2005), Wheeler et al, Nat. Rev. Clin. Oncol. 7:493-507 (2010)). […] A further examination was made of whether inhibition of Akt signaling could negate EGF-mediated induction of BM stem/progenitor cell cycling following irradiation.

EGFR = assay: Phosphorylation of EGFR-Y845 in BM KSL cells in culture; format: cell-based, mouse; settings: wild type BM KSL cells treated with EGF in vitro (20 ng/mL, 15 minutes)
DNA-PK = assay: Phosphorylation of DNA-PK in irradiated BM lin- cells; format: cell-based, mouse; settings: 300 cGy BM lin- cells, EGF 20 ng/ml, vs cytokines alone
Procedure: The phosphorylation of the T2647 domain of DNA-PK was measured using immunofluorescence and flow cytometric analysis. […] Cells were separated onto a glass slide, fixed with 4% paraformaldehyde and permeabilized with 0.3% Triton-X. Cells were stained with rabbit polyclonal DNA-PK or rabbit IgG (Abeam, Cambridge, Mass.) and donkey anti-rabbit Alexafluor 488 antibody and counterstained with Hoechst 33342 (Life Technologies, Grand Island, N.Y.).

C57B16 mice = assay: Survival of C57B16 mice after 700 cGy TBI; format: in vivo, mouse; settings: 0.5 ug/G EGF daily x 7 days from +2 hours, saline controls 57%
[5] = 20 ng/mL EGF added to non-contact FL/+ EC cultures of 300 cGy-irradiated BM KSL cells, vs FL/+ ECs alone
[6] = EGF added to irradiated BM KSL cells cultured with cytokines (TSF), day 7, vs cytokines alone
[7] = 300 cGy, cytokines + EGF, 72 hours of culture

Substance: EGF: epidermal growth factor; recombinant EGF (R&D Systems)
- increase in CFCs recovered at day 7 (BM KSL cells [1]; [5]): 2.2 fold
- increase in CFU-S12 recovered at day 7 (BM KSL cells [1]; [5]): 2.6 fold
- recovery of CFCs in culture (BM KSL cells [1]; 300 cGy BM KSL cells from Tie2Cre;Bak1-/-;BaxFl/- mice, TSF + 20 ng/ml EGF, 72 hours, vs cytokines alone): increased CFCs; also recorded: increase in recovery of CFCs
- increase in CFCs (BM KSL cells [1]; [6]): 3 fold
- increase in CFU-S12 (BM KSL cells [1]; [6]): 4 fold
- increase in BM CFC recovery (BM KSL cells [1]; EGF treatment, 72 hours following radiation exposure, vs TSF alone): 3 fold
- regeneration of BM stem and progenitor cells (CFC, CFUS12) (BM KSL cells [1]; Example 1, 300 cGy KSL cells, 7 days with BaxFl+ endothelial cells with and without EGF): induced regeneration of BM stem and progenitor cells
- donor hematopoietic cell repopulation, higher vs cytokine cultures alone (BM 34-KSL cells): 3 fold
- decreased Annexin+ KSL cells (BM KSL cells [2]; C57B16 BM KSL, 300 cGy, cytokines plus 20 ng/ml EGF): 2 fold
- percentage of Annexin+ cells (BM KSL cells [2]; irradiated BM KSL cells from Tie2Cre;Bak1-/-;BaxFl/- mice, EGF): further decreased
- decreased Annexin+ BM hematopoietic cells (CD45+MECA- BM cells): 4 fold
- cycling of BM KSL cells from Tie2Cre;Bak1-/-;BaxFl/- mice (BM KSL cells [3]; 300 cGy in vitro, TSF + 20 ng/ml EGF, 72 hours, vs TSF): significantly decreased G0 cells and increased G2/S/M cells; also recorded: significantly increased the cycling
- KSL cells in G1 (BM KSL cells [3]; [7]): 51%
- KSL cells in G2/S/M phase (BM KSL cells [3]; [7]): 31%
- KSL cells remaining in G0 (BM KSL cells [3]; [7]): 17%
- BrdU incorporation in BM KSL cells (BM KSL cells [4]): significantly increased; also recorded: marked increase
- phosphorylation of MAPK (MAPK): did not alter the phosphorylation of MAPK
- EGFR signaling as measured by EGFR phosphorylation (EGFR): induced EGFR signaling
- phospho-DNA-PK levels by immunofluorescence staining (DNA-PK; 15 minutes): increased phospho-DNA-PK; also recorded: significant increase
- phospho-DNA-PK levels by FACS analysis (DNA-PK; 1 hour): increased phospho-DNA-PK; also recorded: significant increase
- mice alive and well through day +30 (C57B16 mice): 93%
